From ChEMBL document CHEMBL1138655, “Synthesis and biological studies of 1-amino beta-carbolines” (Bioorg Med Chem Lett, 2004)
In brackets after ≈: the same amount, converted by molar mass.

Key:
Plasmodium falciparum = assay: Inhibitory concentration for Plasmodium falciparum; assay type: functional, organism-based
[1] = system: Trypanosoma brucei rhodesiense; assay: inhibitory concentration against Trypanosoma brucei rhodesiense determined; assay type: functional, organism-based
Trypanosoma cruzi = assay: inhibitory concentration against Trypanosoma cruzi was determined; assay type: functional, organism-based
Leishmania donovani = assay: inhibitory concentration against Leishmania donovani was determined; assay type: functional, organism-based
HOP-92 = assay: Concentration required for 50% growth inhibition against human non small cell lung cancer HOP-92; assay type: functional
MDA-MB-231 = assay: Concentration required for 50% growth inhibition against human breast MDA-MB-231/ATCC cell lines; assay type: functional
OVCAR-3 = assay: Concentration required for 50% growth inhibition against human ovarian OVCAR-3 cell lines; assay type: functional
K562 = assay: Concentration required for 50% growth inhibition against human leukemia K-562 cell lines; assay type: functional
M14 = assay: Concentration required for 50% growth inhibition against human melanoma M14 cell lines; assay type: functional
UACC-62 = assay: Concentration required for 50% growth inhibition against human melanoma UACC-62 cell lines; assay type: functional
HT-29 = assay: Concentration required for 50% growth inhibition against human colon HT-29 cell lines; assay type: functional

| IC50 (Plasmodium falciparum) [µg/mL] | IC50 [1] [µg/mL] | IC50 (Trypanosoma cruzi) [µg/mL] | IC50 (Leishmania donovani) [µg/mL] | GI50 (MDA-MB-231) [µM] | GI50 (OVCAR-3) [µM] | GI50 (K562) [µM] | GI50 (HT-29) [µM] | SMILES | GI50 (HOP-92) [µM] | GI50 (M14) [µM] | GI50 (UACC-62) [µM] |
| --- | --- | --- | --- | --- | --- | --- | --- | --- | --- | --- | --- |
| 1.2 (≈ 4.77 µM) | 0.13 (≈ 0.517 µM) | > 30 | > 90 | – | – | – | – | c1ccc2c(c1)[nH]c1c(N3CCCCC3)nccc12 | – | – | – |
| 4.59 (≈ 18.1 µM) | 18.2 (≈ 71.9 µM) | 25.1 (≈ 99.1 µM) | > 90 | – | – | – | – | c1ccc2c(c1)[nH]c1c(N3CCOCC3)nccc12 | – | – | – |
| 0.62 (≈ 2.33 µM) | 0.63 (≈ 2.37 µM) | 4.3 (≈ 16.1 µM) | > 90 | 3.9 | 19.9 | 22.5 | – | CN1CCN(c2nccc3c2[nH]c2ccccc23)CC1 | 18.6 | 14.9 | 17.8 |
| 0.41 (≈ 1.27 µM) | 0.63 (≈ 1.95 µM) | 5.8 (≈ 17.9 µM) | > 90 | – | – | – | – | CCN(CC)N1CCN(c2[nH]ccc3c4ccccc4nc2-3)CC1 | – | – | – |
| 3.4 (≈ 12.7 µM) | 8.9 (≈ 33.3 µM) | 19.3 (≈ 72.4 µM) | > 90 | – | – | – | – | OC1CCCN(c2[nH]ccc3c4ccccc4nc2-3)C1 (configuration not stated) | – | – | – |
| 0.64 (≈ 2.16 µM) | 0.18 (≈ 0.607 µM) | 1.62 (≈ 5.47 µM) | > 90 | 5.2 | 1.6 | 3.2 | 2.7 | CCN(CC)CCCNc1nccc2c1[nH]c1ccccc12 | 0.38 | 2 | 2.3 |
| 2.4 (≈ 10.6 µM) | 1.8 (≈ 7.92 µM) | 4.25 (≈ 18.7 µM) | > 90 | – | – | – | – | OCCNc1[nH]ccc2c3ccccc3nc1-2 | – | – | – |
| 0.45 (≈ 1.4 µM) | 0.52 (≈ 1.62 µM) | 6.1 (≈ 19 µM) | > 90 | – | – | – | – | c1ccc2c3cc[nH]c(N4CCN(N5CCCC5)CC4)c-3nc2c1 | – | – | – |
| 0.45 (≈ 1.68 µM) | 28.1 (≈ 105 µM) | 4.2 (≈ 15.7 µM) | > 90 | – | – | – | – | CN(C)CCCNc1nccc2c1[nH]c1ccccc12 | – | – | – |
| 0.35 (≈ 1 µM) | 0.61 (≈ 1.75 µM) | 6.5 (≈ 18.6 µM) | > 90 | – | – | – | – | c1ccc2c3cc[nH]c(N4CCN(N5CCCCCC5)CC4)c-3nc2c1 | – | – | – |
| 0.42 (≈ 1.29 µM) | 0.13 (≈ 0.401 µM) | 3 (≈ 9.25 µM) | > 90 | – | 22.8 | 12.2 | 22.9 | CCN(CC)CCCC(C)Nc1nccc2c1[nH]c1ccccc12 (configuration not stated) | 4.5 | 16.4 | 24 |
| 0.39 (≈ 1.16 µM) | 1.8 (≈ 5.37 µM) | 2.35 (≈ 7.01 µM) | > 90 | – | – | – | – | c1ccc2c3cc[nH]c(N4CCN(N5CCCCC5)CC4)c-3nc2c1 | – | – | – |
